This experiment deals with 171881-019-R-J1-PDC complex spheroid viability. Put plainly: Anticancer human tumor 171881-019-R-J1-PDC patient-derived invasive breast carcinoma cell line growth inhibition. Particulars: for viability, T/C: stronger effect = lower value. The method, boiled down:
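Drug combinations with the LSD1 inhibitor iadademstat tested on tumor cells co-cultured as spheroids with endothelial cells and mesenchymal stem cells. Concentrations descended in half-log increments from clinical Cmax or 10 microM.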

“And” between values parts separate entries of the source, which are not always exact repeats. Identical values can stand only once.
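Also: spheroids exposed to agents for 7 days after 3 days growth.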

The term IC50 denotes the concentration that inhibits the measured activity by half. Usually viability, T/C stands for the ratio of treated to control. As to `CC1(C)CCC(CN2CCN(c3ccc(C(=O)NS(=O)(=O)c4ccc(NCC5CCOCC5)c([N+](=O)[O-])c4)c(Oc4cnc5[nH]ccc5c4)c3)CC2)=C(c2ccc(Cl)cc2)C1` + NC1CC1c1ccc(-c2cccc(O)c2)cc1, the IC50 was found to be 1410 nM (curve of first compound, second compound 0.1 µM); 1490 nM (curve of first compound, second compound 0.316 µM); 1450 nM (curve of first compound, second compound 1 µM); 1450 nM (curve of first compound, second compound 3.16 µM); 1300 nM (curve of first compound, second compound 10 µM). For the same compound, the viability, T/C by setting is: (second compound 0.1 µM, first compound 0.0316 µM) 101%; (second compound 0.1 µM, first compound 0.1 µM) 97.9%; (second compound 0.1 µM, first compound 0.316 µM) 87.8%; (second compound 0.1 µM, first compound 1 µM) 63%; (second compound 0.1 µM, first compound 3.16 µM) 21.7%; (second compound 0.1 µM, first compound 10 µM) 9.08%. The viability, T/C was 103% (second compound 0.316 µM, first compound 0.0316 µM); 95.7% (second compound 0.316 µM, first compound 0.1 µM); 92.3% (second compound 0.316 µM, first compound 0.316 µM); 64.4% (second compound 0.316 µM, first compound 1 µM); 22.9% (second compound 0.316 µM, first compound 3.16 µM); 4.28% (second compound 0.316 µM, first compound 10 µM). In addition, the viability, T/C is, setting by setting: (second compound 1 µM, first compound 0.0316 µM) 103%; (second compound 1 µM, first compound 0.1 µM) 102%; (second compound 1 µM, first compound 0.316 µM) 88.4%; (second compound 1 µM, first compound 1 µM) 64.2%; (second compound 1 µM, first compound 3.16 µM) 22.3%; (second compound 1 µM, first compound 10 µM) 4%. Moreover, the viability, T/C by setting is: (second compound 3.16 µM, first compound 0.0316 µM) 94.5%; (second compound 3.16 µM, first compound 0.1 µM) 92.7%; (second compound 3.16 µM, first compound 0.316 µM) 86.3%; (second compound 3.16 µM, first compound 1 µM) 63.2%; (second compound 3.16 µM, first compound 3.16 µM) 22.8%; (second compound 3.16 µM, first compound 10 µM) 4.22%. Moreover, the viability, T/C runs as follows: (second compound 10 µM, first compound 0.0316 µM) 84.5%; (second compound 10 µM, first compound 0.1 µM) 82.5%; (second compound 10 µM, first compound 0.316 µM) 77.1%; (second compound 10 µM, first compound 1 µM) 59%; (second compound 10 µM, first compound 3.16 µM) 21.2%; (second compound 10 µM, first compound 10 µM) 3.96%.
Turning to `Nc1ncn(C2CC(O)C(CO)S2)c(=O)n1` (configuration not stated), the viability, T/C was 95.1% and 102% (compound 0.000949 µM); 98% and 105% (compound 0.003 µM); 136% and 94.5% (compound 0.00949 µM); 124% and 76.7% (compound 0.03 µM); 73% and 53.8% (compound 0.0949 µM); 38% and 34.8% (compound 0.3 µM). The IC50 (curve of compound) is 202 nM and 115 nM.

(Values after PubChem BioAssay AID1918932 (Molecular Pharmacology Branch, DTP, NCI, 2023).)
